Columns and labels:
[1] = target: T1, TAF1-2 (TAF1 BD2) (Homo sapiens, UniProt P21675); assay: Isothermal titration calorimetry (ITC); assay type: binding; details: Table 3; 288.15 K
T1 construct: BD2 (residues 1501-1635); His6 (TEV-cleavable) (cleaved yes); host or cells: E. coli BL21 (DE3)
T1 sequence (P21675 1501-1635 isoform P21675-1): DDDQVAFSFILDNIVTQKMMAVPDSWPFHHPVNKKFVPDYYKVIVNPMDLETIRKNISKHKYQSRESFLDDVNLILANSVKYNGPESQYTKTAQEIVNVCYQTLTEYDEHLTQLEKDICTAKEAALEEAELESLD

[2] = system: TRIM33(PHD, Bromo.); assay: Bromoscan selectivity profiling (DiscoveRx); assay type: binding, human; details: at 20,000 nM
Method: qPCR-based BRD binding assay. Another method for the determination of dissociation constants of BRD-ligand complexes is offered by DiscoveRx Corp. The assay is based on competition between test compound and immobilized high-affinity ligand for binding to the KAc site of BRDs. The amount of TAF1 remaining on an immobilized high-affinity ligand in the presence of ligand is measured using a quantitative real-time polymerase chain reaction (qPCR) method that detects the associated DNA label tagged to the BRD.
Inhibitor selectivity assays To assess target selectivity, compounds with highest biochemical and cellular activities can be profiled against panels of BRDs and kinases using the services of DiscoveRx and/or Reaction biology, as we have done previously.

[3] = target: T1, TAF1-2 (TAF1 BD2); assay: Differential scanning fluorimetry (DSF) thermal shift; assay type: binding
[4] = target: T2, TAF1-T (TAF1 tandem bromodomain) (Homo sapiens, UniProt P21675); assay: Isothermal titration calorimetry (ITC); assay type: binding; details: Table 3; 298.15 K
T2 construct: tandem bromodomain (residues 1373-1635); His6 (TEV-cleavable) (cleaved yes); host or cells: E. coli BL21 (DE3)
T2 sequence (P21675 1373-1635 isoform P21675-1): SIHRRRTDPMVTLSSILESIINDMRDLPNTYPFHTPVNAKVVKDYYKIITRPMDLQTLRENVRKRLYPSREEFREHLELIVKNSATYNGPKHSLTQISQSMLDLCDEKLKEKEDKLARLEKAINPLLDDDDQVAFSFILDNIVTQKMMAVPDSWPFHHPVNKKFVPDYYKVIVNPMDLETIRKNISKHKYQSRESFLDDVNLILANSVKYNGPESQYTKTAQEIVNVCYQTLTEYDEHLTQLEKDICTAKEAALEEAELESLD

[5] = target: T3, TAF1-T (TAF1 tandem bromodomain, BD1 and BD2) (Homo sapiens, UniProt P21675); assay: Differential scanning fluorimetry (DSF) thermal shift; assay type: binding
T3 construct: tandem bromodomain (residues 1373-1635); His6 (TEV-cleavable) (cleaved yes); host or cells: E. coli BL21 (DE3)
T3 sequence (P21675 1373-1635 isoform P21675-1): T2 sequence (P21675 1373-1635 isoform P21675-1)

[6] = system: A549 lung cancer cells; assay: p53 pathway markers by western blot in A549 cells; assay type: cell-based, human
[7] = Table 2 (Example 2), 100 μM compound, standard deviation from two experiments
[8] = Table 2 (Example 2), 100 μM compound, standard deviation from two experiments, 100 µM

**Q.** With `C[C@@H]1COCCN1c1cc(C2([S@](C)(=N)=O)CC2)nc(-c2cc[nH]c3nccc2-3)n1` [AZD6738] as the compound, how does the “ITC N (stoichiometry), TAF1-2” value [1] read?
**A.** The value was 0.99.

**Q.** What about the “ITC TΔS, TAF1-2” value [1] of the same compound?
**A.** The value was 3.26 kcal/mol.

**Q.** What about the “ITC ΔH, TAF1-2” value [1] of the same compound?
**A.** Its value is -4.36 kcal/mol.

**Q.** And the “% Inhibition TRIM33(PHD, Bromo.)” value [2]?
**A.** The value was 0%.

**Q.** What about the “DSF (ΔTm, ° C.) TAF1-2” value ([3]; Table 1 (Example 1)) of the same compound?
**A.** Its value is 2.9 ± 0.2 °C.

**Q.** What about the ΔTm at 100 µM [3, 7] of the same compound?
**A.** The ΔTm at 100 µM was 3.2 °C.

**Q.** What about the “DSF (ΔTm, ° C.) TAF1-2” value [3, 8] of the same compound?
**A.** The value was 3.1 ± 0.1 °C.

**Q.** What about the “ITC N (stoichiometry), TAF1-T” value [4] of the same compound?
**A.** The value was 1.11.

**Q.** And the “ITC TΔS, TAF1-T” value [4]?
**A.** The value was 2.26 kcal/mol.

**Q.** And the “ITC ΔH, TAF1-T” value [4]?
**A.** Its value is -5.82 kcal/mol.

**Q.** What about the “DSF (ΔTm, ° C.) TAF1-T” value ([5]; Table 1 (Example 1)) of the same compound?
**A.** Its value is 5.8 ± 0.5 °C.

**Q.** What about the ΔTm at 100 µM [5, 7] of the same compound?
**A.** Its ΔTm at 100 µM is 3.1 °C.

**Q.** What about the “DSF (ΔTm, ° C.) TAF1-T” value [5, 8] of the same compound?
**A.** The value was 3.2 ± 0.1 °C.

**Q.** What about the “p53 and p21 levels” value ([6]; A549, 10 μM, 24 h, western blot) of the same compound?
**A.** Its value is “modest increase”.

**Q.** And the MDMX levels ([6]; A549, western blot)?
**A.** Its MDMX levels is “modest effect”.
